# In PubChem BioAssay AID1963423 (Molecular Pharmacology Branch, DTP, NCI, 2024):
# Tested on: 439559-082-T-J2-PDC complex spheroid growth
# Test: Anticancer human tumor 439559-082-T-J2-PDC patient-derived colon adenocarcinoma cell line growth inhibition [Asc]
# Conditions: for IC50: curve of first compound; for viability, T/C: stronger effect = lower value
# Procedure, shortened: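 Complex solid-tumor spheroids incorporating human endothelial and mesenchymal stem cells received single agents or combinations over half-log dilution ranges anchored to clinical Cmax.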
# [1] = second compound 0.1 µM, first compound 0.0316 µM
# [2] = second compound 0.1 µM, first compound 0.1 µM
# [3] = second compound 0.1 µM, first compound 0.316 µM
# [4] = second compound 0.1 µM, first compound 1 µM
# [5] = second compound 0.316 µM, first compound 0.0316 µM
# [6] = second compound 0.316 µM, first compound 0.1 µM
# [7] = second compound 0.316 µM, first compound 0.316 µM
# [8] = second compound 0.316 µM, first compound 1 µM
# [9] = second compound 1 µM, first compound 0.0316 µM
# [10] = second compound 1 µM, first compound 0.1 µM
# [11] = second compound 1 µM, first compound 0.316 µM
# [12] = second compound 1 µM, first compound 1 µM
# [13] = second compound 3.16 µM, first compound 0.0316 µM
# [14] = second compound 3.16 µM, first compound 0.1 µM
# [15] = second compound 3.16 µM, first compound 0.316 µM
# [16] = second compound 3.16 µM, first compound 1 µM
# [17] = second compound 10 µM, first compound 0.0316 µM
# [18] = second compound 10 µM, first compound 0.1 µM
# [19] = second compound 10 µM, first compound 0.316 µM
# [20] = second compound 10 µM, first compound 1 µM
# 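Further: spheroids exposed to agents for 7 days starting day 3 after seeding.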
# 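Wherever viability, T/C is given: percent of DMSO vehicle control viability with 100% = vehicle.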
compound,measurement,setting,value
C=C(F)C(=O)N1CCN(c2nc(OCC3CCCN3C)nc3c2CCN(c2cccc4cccc(Cl)c24)C3)CC1CC#N (stereo not given) + Cc1c(S(C)(=O)=O)c(-c2cc(F)cc(N3CCN(c4ccc(NS(=O)(=O)c5ccc(NC(CCN6CCC(C(=O)OCCCP(=O)(O)O)CC6)CSc6ccccc6)c(S(=O)(=O)C(F)(F)F)c5)cc4)CC3)c2)c(-c2ccc(Cl)cc2)n1C(C)C,IC50,second compound 0.1 µM,5.15 µM
same,IC50,second compound 0.316 µM,4.17 µM
same,IC50,second compound 1 µM,4.17 µM
same,IC50,second compound 3.16 µM,3.17 µM
same,IC50,second compound 10 µM,2.78 µM
same,"viability, T/C",[1],96.8%
same,"viability, T/C",[2],107%
same,"viability, T/C",[3],95%
same,"viability, T/C",[4],88.6%
same,"viability, T/C","second compound 0.1 µM, first compound 3.16 µM",78.4%
same,"viability, T/C","second compound 0.1 µM, first compound 10 µM",14.2%
same,"viability, T/C",[5],95.3%
same,"viability, T/C",[6],106%
same,"viability, T/C",[7],98.5%
same,"viability, T/C",[8],77.7%
same,"viability, T/C","second compound 0.316 µM, first compound 3.16 µM",69.2%
same,"viability, T/C","second compound 0.316 µM, first compound 10 µM",4.6%
same,"viability, T/C",[9],95.8%
same,"viability, T/C",[10],94.5%
same,"viability, T/C",[11],103%
same,"viability, T/C",[12],84.5%
same,"viability, T/C","second compound 1 µM, first compound 3.16 µM",66.6%
same,"viability, T/C","second compound 1 µM, first compound 10 µM",0.51%
same,"viability, T/C",[13],79.1%
same,"viability, T/C",[14],95.3%
same,"viability, T/C",[15],93.4%
same,"viability, T/C",[16],71.7%
same,"viability, T/C","second compound 3.16 µM, first compound 3.16 µM",51.6%
same,"viability, T/C","second compound 3.16 µM, first compound 10 µM",0.43%
same,"viability, T/C",[17],68%
same,"viability, T/C",[18],85.8%
same,"viability, T/C",[19],86.3%
same,"viability, T/C",[20],65.8%
same,"viability, T/C","second compound 10 µM, first compound 3.16 µM",48.5%
same,"viability, T/C","second compound 10 µM, first compound 10 µM",2.9%
CCN1C(C(=O)NC23CCC(C(=O)O)(CC2)CC3)C(c2cccc(Cl)c2F)C2(C(=O)Nc3cc(Cl)ccc32)C12CCCCC2 (stereo not given) + Cc1c(S(C)(=O)=O)c(-c2cc(F)cc(N3CCN(c4ccc(NS(=O)(=O)c5ccc(NC(CCN6CCC(C(=O)OCCCP(=O)(O)O)CC6)CSc6ccccc6)c(S(=O)(=O)C(F)(F)F)c5)cc4)CC3)c2)c(-c2ccc(Cl)cc2)n1C(C)C,IC50,second compound 0.1 µM,> 3 µM
same,IC50,second compound 0.316 µM,> 3 µM
same,IC50,second compound 1 µM,> 3 µM
same,IC50,second compound 3.16 µM,> 3 µM
same,IC50,second compound 10 µM,> 3 µM
same,"viability, T/C","second compound 0.1 µM, first compound 0.00949 µM",96.8%
same,"viability, T/C","second compound 0.1 µM, first compound 0.03 µM",104%
same,"viability, T/C","second compound 0.1 µM, first compound 0.0949 µM",102%
same,"viability, T/C","second compound 0.1 µM, first compound 0.3 µM",98.6%
same,"viability, T/C","second compound 0.1 µM, first compound 0.949 µM",95.4%
same,"viability, T/C","second compound 0.1 µM, first compound 3 µM",93.1%
same,"viability, T/C","second compound 0.316 µM, first compound 0.00949 µM",103%
same,"viability, T/C","second compound 0.316 µM, first compound 0.03 µM",104%
same,"viability, T/C","second compound 0.316 µM, first compound 0.0949 µM",102%
same,"viability, T/C","second compound 0.316 µM, first compound 0.3 µM",87.8%
same,"viability, T/C","second compound 0.316 µM, first compound 0.949 µM",97.9%
same,"viability, T/C","second compound 0.316 µM, first compound 3 µM",86.2%
same,"viability, T/C","second compound 1 µM, first compound 0.00949 µM",90.8%
same,"viability, T/C","second compound 1 µM, first compound 0.03 µM",97%
same,"viability, T/C","second compound 1 µM, first compound 0.0949 µM",99.7%
same,"viability, T/C","second compound 1 µM, first compound 0.3 µM",84.5%
same,"viability, T/C","second compound 1 µM, first compound 0.949 µM",88.5%
same,"viability, T/C","second compound 1 µM, first compound 3 µM",79.3%
same,"viability, T/C","second compound 3.16 µM, first compound 0.00949 µM",81.5%
same,"viability, T/C","second compound 3.16 µM, first compound 0.03 µM",92%
same,"viability, T/C","second compound 3.16 µM, first compound 0.0949 µM",91.4%
same,"viability, T/C","second compound 3.16 µM, first compound 0.3 µM",89%
same,"viability, T/C","second compound 3.16 µM, first compound 0.949 µM",82%
same,"viability, T/C","second compound 3.16 µM, first compound 3 µM",67.8%
same,"viability, T/C","second compound 10 µM, first compound 0.00949 µM",69.9%
same,"viability, T/C","second compound 10 µM, first compound 0.03 µM",77.7%
same,"viability, T/C","second compound 10 µM, first compound 0.0949 µM",74.3%
same,"viability, T/C","second compound 10 µM, first compound 0.3 µM",69.5%
same,"viability, T/C","second compound 10 µM, first compound 0.949 µM",74.1%
same,"viability, T/C","second compound 10 µM, first compound 3 µM",57.3%
CNC(C)C(=O)NC1CN(S(=O)(=O)c2cccc(S(=O)(=O)N3CCC4CCC(C(=O)NC(c5ccccc5)c5ccccc5)N4C(=O)C(NC(=O)C(C)NC)C3)c2)CCC2CCC(C(=O)NC(c3ccccc3)c3ccccc3)N2C1=O (stereo not given) + Cc1c(S(C)(=O)=O)c(-c2cc(F)cc(N3CCN(c4ccc(NS(=O)(=O)c5ccc(NC(CCN6CCC(C(=O)OCCCP(=O)(O)O)CC6)CSc6ccccc6)c(S(=O)(=O)C(F)(F)F)c5)cc4)CC3)c2)c(-c2ccc(Cl)cc2)n1C(C)C,IC50,second compound 0.1 µM,> 1 µM
same,IC50,second compound 0.316 µM,> 1 µM
same,IC50,second compound 1 µM,> 1 µM
same,IC50,second compound 3.16 µM,> 1 µM
same,IC50,second compound 10 µM,> 1 µM
same,"viability, T/C","second compound 0.1 µM, first compound 0.00316 µM",102%
same,"viability, T/C","second compound 0.1 µM, first compound 0.01 µM",111%
same,"viability, T/C",[1],110%
same,"viability, T/C",[2],88.2%
same,"viability, T/C",[3],88%
same,"viability, T/C",[4],86.3%
same,"viability, T/C","second compound 0.316 µM, first compound 0.00316 µM",97.9%
same,"viability, T/C","second compound 0.316 µM, first compound 0.01 µM",105%
same,"viability, T/C",[5],108%
same,"viability, T/C",[6],85%
same,"viability, T/C",[7],83%
same,"viability, T/C",[8],79.8%
same,"viability, T/C","second compound 1 µM, first compound 0.00316 µM",97.5%
same,"viability, T/C","second compound 1 µM, first compound 0.01 µM",103%
same,"viability, T/C",[9],104%
same,"viability, T/C",[10],87.1%
same,"viability, T/C",[11],93.9%
same,"viability, T/C",[12],80%
same,"viability, T/C","second compound 3.16 µM, first compound 0.00316 µM",91.2%
same,"viability, T/C","second compound 3.16 µM, first compound 0.01 µM",99.2%
same,"viability, T/C",[13],102%
same,"viability, T/C",[14],71%
same,"viability, T/C",[15],84%
same,"viability, T/C",[16],69.7%
same,"viability, T/C","second compound 10 µM, first compound 0.00316 µM",75.5%
same,"viability, T/C","second compound 10 µM, first compound 0.01 µM",80.4%
same,"viability, T/C",[17],90.6%
same,"viability, T/C",[18],72.8%
same,"viability, T/C",[19],64.7%
same,"viability, T/C",[20],66.1%
